Measurements reported in US9539298B2, “Lissencephaly therapeutic agent” (OSAKA CITY UNIVERSITY, priority 2010, dated 2017).

Legend:
[1] = target: T1, μ-calpain (derived from human red blood cells) (Homo sapiens, UniProt P07384); experiment: Measurement of inhibitory activity against μ-calpain; assay type: biochemical; conditions: casein substrate, 30° C., 60 minutes; read-out: enzyme inhibitory activities (μM) μ-calpain
T1 construct: derived from human red blood cells; purchased Cosmo Bio Co., Ltd; host or cells: human red blood cells (tissue-purified)
T1 sequence (P07384 1-714): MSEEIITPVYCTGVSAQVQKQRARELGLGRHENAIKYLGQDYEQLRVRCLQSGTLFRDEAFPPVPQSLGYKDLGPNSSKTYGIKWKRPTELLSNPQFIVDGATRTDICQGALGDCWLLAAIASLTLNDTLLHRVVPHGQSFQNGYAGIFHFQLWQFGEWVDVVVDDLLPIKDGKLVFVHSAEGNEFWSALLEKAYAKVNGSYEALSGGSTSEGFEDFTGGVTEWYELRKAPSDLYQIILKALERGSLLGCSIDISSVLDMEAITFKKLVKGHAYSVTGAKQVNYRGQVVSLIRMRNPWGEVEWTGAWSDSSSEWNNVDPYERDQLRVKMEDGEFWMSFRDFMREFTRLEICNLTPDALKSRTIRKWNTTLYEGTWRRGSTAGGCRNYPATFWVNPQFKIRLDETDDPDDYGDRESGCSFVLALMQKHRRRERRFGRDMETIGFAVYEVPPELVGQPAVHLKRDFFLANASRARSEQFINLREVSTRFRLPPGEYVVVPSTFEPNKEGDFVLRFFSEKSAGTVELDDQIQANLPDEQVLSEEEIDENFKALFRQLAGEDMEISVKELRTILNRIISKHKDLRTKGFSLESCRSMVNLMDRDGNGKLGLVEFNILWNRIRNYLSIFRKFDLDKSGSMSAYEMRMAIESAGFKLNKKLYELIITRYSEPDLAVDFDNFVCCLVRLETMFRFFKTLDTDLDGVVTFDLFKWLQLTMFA
T1 sequence (P04632 1-268 partner): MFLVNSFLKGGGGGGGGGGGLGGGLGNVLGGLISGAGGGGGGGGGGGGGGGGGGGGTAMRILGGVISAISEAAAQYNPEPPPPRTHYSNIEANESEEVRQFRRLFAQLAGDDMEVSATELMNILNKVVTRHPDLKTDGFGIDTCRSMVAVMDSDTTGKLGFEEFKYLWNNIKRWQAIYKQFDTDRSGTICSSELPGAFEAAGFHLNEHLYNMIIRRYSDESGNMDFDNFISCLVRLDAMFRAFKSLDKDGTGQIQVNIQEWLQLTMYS
Experimental: (§1) The inhibitory activity against μ-calpain and m-calpain was assayed according to a published method (Anal. Biochem. 1993, vol. 208, p. 387-392). More specifically, 200 μL of a reaction solution containing 0.5 mg/mL casein, 50 mM Tris-HCl buffer (pH 7.4), 20 mM dithiothreitol and 1.0 nmol μ-calpain (derived from human red blood cells, Cosmo Bio Co., Ltd.) or m-calpain (derived from porcine kidney, Cosmo Bio Co., Ltd.) was added to individual 2.5 μL portions of DMSO solution containing a varying concentration of a test sample in a 96-well plate. Then, 50 μL of 20 mM aqueous calcium chloride was added thereto, and reaction was performed at 30° C. for 60 minutes. 100 μL of the reaction solution was transferred to another 96-well plate, and purified water (50 μL) and 50% aqueous solution (100 μL) of Protein Assay Dye Reagent (available from Bio-Rad Laboratories, Inc.; catalogue No. 500-600) were added thereto. The reaction mixture was allowed to stand at room temperature for 15 minutes, and its absorbance was measured at 595 nm. The absorbance of a reaction mixture prepared in the same manner as mentioned above, except that a DMSO solution containing no sample was used as a control value; and the absorbance of a reaction mixture prepared in the same manner as mentioned above, except that a 1 mM aqueous EDTA solution (50 μL) was used in place of 20 mM aqueous calcium chloride, was used as a blank value. […] Inhibition rate (%){1−(measured value−blank test value)/(control value−blank test value)}×100
The concentrations (IC50) are shown in Table 1 as enzyme (calpain) inhibitory activities (μM).

[2] = target: m-calpain (derived from porcine kidney) (Sus scrofa, UniProt I3LQD3); experiment: Measurement of inhibitory activity against m-calpain; assay type: biochemical; conditions: casein substrate, 30° C., 60 minutes; read-out: enzyme inhibitory activities (μM) m-calpain
Experimental: as §1, with “More” for “The inhibitory activity against μ-calpain and m-calpain was assayed according to a published method (Anal. Biochem. 1993, vol. 208, p. 387-392). More”, “The reaction mixture was allowed to stand at room temperature for 15 minutes, and its absorbance was measured at 595 nm.” left out

Chain of m-calpain (derived from porcine kidney) (I3LQD3 entry or part of it): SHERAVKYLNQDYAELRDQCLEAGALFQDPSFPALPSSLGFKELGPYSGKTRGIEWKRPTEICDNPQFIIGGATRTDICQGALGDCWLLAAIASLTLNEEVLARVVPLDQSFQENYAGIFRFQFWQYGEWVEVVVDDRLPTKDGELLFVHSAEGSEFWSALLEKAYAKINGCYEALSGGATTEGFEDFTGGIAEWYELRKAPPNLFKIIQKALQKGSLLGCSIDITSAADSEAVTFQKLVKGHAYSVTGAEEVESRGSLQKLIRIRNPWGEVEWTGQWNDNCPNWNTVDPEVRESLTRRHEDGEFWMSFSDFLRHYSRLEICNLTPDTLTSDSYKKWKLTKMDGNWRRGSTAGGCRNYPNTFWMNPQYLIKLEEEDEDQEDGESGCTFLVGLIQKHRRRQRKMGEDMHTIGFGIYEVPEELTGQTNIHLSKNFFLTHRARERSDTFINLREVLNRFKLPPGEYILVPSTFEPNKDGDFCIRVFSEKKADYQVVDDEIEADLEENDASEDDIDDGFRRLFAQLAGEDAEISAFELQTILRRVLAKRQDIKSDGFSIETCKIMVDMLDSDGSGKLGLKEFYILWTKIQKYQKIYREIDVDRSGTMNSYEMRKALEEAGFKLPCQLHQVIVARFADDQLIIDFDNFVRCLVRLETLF
Chain of m-calpain (derived from porcine kidney) (P04574 whole entry, further chain): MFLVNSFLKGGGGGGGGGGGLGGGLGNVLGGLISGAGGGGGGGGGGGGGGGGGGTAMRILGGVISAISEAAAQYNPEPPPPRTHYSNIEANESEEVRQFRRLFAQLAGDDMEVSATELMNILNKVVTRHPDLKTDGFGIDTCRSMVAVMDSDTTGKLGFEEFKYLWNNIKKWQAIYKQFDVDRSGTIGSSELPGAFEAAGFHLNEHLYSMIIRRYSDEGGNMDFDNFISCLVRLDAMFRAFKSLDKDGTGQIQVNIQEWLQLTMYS

`COCCOCCOC(=O)N[C@@H](CC(C)C)C(=O)N[C@@H](Cc1ccccc1)C(=O)C(=O)NC1CC1` [compound 17, ((1S)-1-((((1S)-1-Benzyl-2,3-dioxo-3-(cyclopropylamino)propyl)amino)carbonyl)-3-methylbutyl)carbamic acid 5-methoxy-3-oxapentyl ester] showed an IC50 [1] of 0.17 µM and an IC50 [2] of 0.1 µM.
